Data from patent US20040235795A1, “Utilization of phosphatidylserine in the treatment of attention deficit syndrome (adhs)” (priority 2001, published 2004).
“Also recorded” adds a separate entry of the source.

Columns and labels:
[1] = tested on: attention deficit syndrome (ADHS) probands; assay: Open study of phosphatidylserine supplementation in ADHS probands (examples 1 to 4); format: in vivo, human
Procedure: Probands in an open study (examples 1 to 4) were selected with the aid of the Wender Utah Rating Scale (WURS) on the basis of their performance at school as well as clinical and physiological tests. They were assessed after 4, 6 and 8 weeks with the short-term supplementation and after 2, 4 and 6 months with the longer supplementation. The probands were examined for measurable differences with regard to concentration, attention, impulsivity, aggression potential and hyperactivity. Questionnaires were used to involve probands, parents and teachers in the evaluation.

ADHS patients = conditions: cited from earlier work
[2] = Example 3: 100 mg per day, 6 months, child, after the third month
[3] = high dosages 200 to 500 mg daily over 4 months

Substance: phosphatidylserine
- habituation effects ([1]; ADHS patients / probands with ADHS): no habituation effects occurred
- general well-being (reported by proband) ([1]; Example 2: 200 mg three times daily, 7 weeks, child): improvement
- hyperactivity ([1]; Example 2: 200 mg three times daily, 7 weeks, child, end of supplementation): marked decline
- attentiveness, concentration and memory performance as well as achievement at school ([1]; Example 3: 100 mg per day, 6 months, child): improved considerably
- general well-being [1, 2]: improvement
- mood [1, 2]: uplift
- tolerance ([1]; even in high doses and over a longer supplementation period): no limitation whatsoever on its wellknown good tolerance; also recorded: well tolerated
- improvement of the ADHS symptoms (ADHS patients; 100 mg per day over a period of 2 months): did not result in a clear improvement
- side effects with drugs administered at the same time (ADHS patients; 100 to 500 mg daily): no side effects occurred
- probands with positive effect (ADHS patients; 200 to 300 mg daily (severe symptoms up to 500 mg daily) over 4 months, probands aged 3 to 19 years): 25 of 27
- improvement in single proband one (ADHS patients; [3]): not possible to make a clear statement about an improvement
- improvement in single proband two (ADHS patients; [3]): only a slight improvement
